In US20140171445A1, “TREATMENT AND PREVENTION OF DISEASES MEDIATED BY MICROORGANISMS VIA DRUG-MEDIATED MANIPULATION OF THE EICOSANOID BALANCE” (priority 2011, published 2014):

Tests used:
[1] = system: Mycobacterium tuberculosis; parameters: species or system C57BL6 mice; conditions: mouse, in vivo
[2] = system: Mycobacterium tuberculosis
[3] = system: tuberculosis; conditions: intranasal; Antonelli et al., J. Clin. Investigation 2010; cited from earlier work

## CC(c1cc2ccccc2s1)N(O)C(N)=O (centres unmarked) [zileuton]
[1]
  colony forming units (CFU) in lungs: approximately 7.6 log^10 CFU

## poly-ICLC
[1]
  colony forming units (CFU) in lungs: approximately 8.9 log^10 CFU
[2]; M. tuberculosis-infected B6 mice treated with poly-ICLC alone, five mice
  mice that survived past day 53 post-infection: None
[2]; M. tuberculosis-infected B6 mice, after 31 days, treated with intranasal poly-ICLC twice weekly
  mean weight as % of starting weight: approximately 74%
[3]
  effect on tuberculosis in mice: exacerbate tuberculosis
